Laboratory results taken from US20240158446A1, “CYCLIC COMPOUND HAVING SELECTIVE INHIBITORY ACTION ON KRAS OVER HRAS AND NRAS” (CHUGAI SEIYAKU KABUSHIKI KAISHA, priority 2021, published 2024).
*1 amine or outer side, *2 acyl side, *3 side chain or, on linkers, in order; H or OH if unused. Where a SMILES comes first, the peptide text is derived from it. Bridges are numbered along the chain shown (N, C = ends). [ ]: non-standard residue; d: D form. The star is where a group is joined. hPhe(3-Cl-4-CF3) = N[C@@H](CCc1ccc(C(F)(F)F)c(Cl)c1)C(=O)O; NPrPhe(4-CF3) = CCCN[C@@H](Cc1ccc(C(F)(F)F)cc1)C(=O)O; X6 = CCCN([C@@H](COCCC(C)C)C(=O)[*:2])[*:1]; X2 = CCCN([C@@H](COC1CCC1)C(=O)[*:2])[*:1]; X4 = CCCN([C@@H](CC(C)C)C(=O)[*:2])[*:1]; NMeGly(cPent) = CN[C@H](C(=O)O)C1CCCC1; NMeD = CN[C@@H](CC(=O)O)C(=O)O; NMeL = CN[C@@H](CC(C)C)C(=O)O; Morpholide = C1CN(*)CCO1; Ac4c = NC1(C(=O)O)CCC1; Sar = CNCC(=O)O

Legend:
[1] = target: GDP-bound KRAS wild-type protein (Homo sapiens, UniProt P01116); assay: Binding to KRAS by surface plasmon resonance (SPR), Single Cycle Kinetics; details: SPR, Single Cycle Kinetics, GDP-bound KRAS wild-type protein; read-out: KRAS KD
[2] = target: GDP-bound HRAS wild-type protein (Homo sapiens, UniProt P01112); assay: Binding to HRAS by surface plasmon resonance (SPR), Single Cycle Kinetics; details: ratio of KD for GDP-bound HRAS wild-type protein to KD for KRAS, SPR
[3] = tested on: human lung cancer strain NCI-H441; assay: cells; details: NCI-H441, 96 h, read-out: NCI-H441 IC50 (nM), NCI-H441 cell proliferation, 4 days, CellTiter-Glo;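 also: cell proliferation inhibition after four days measured by CellTiter-Glo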
[4] = target: GDP-bound NRAS wild-type protein (Homo sapiens, UniProt P01111); assay: Binding to NRAS by surface plasmon resonance (SPR), Single Cycle Kinetics; details: ratio of KD for GDP-bound NRAS wild-type protein to KD for KRAS, SPR
Sequence of GDP-bound NRAS wild-type protein (P01111 whole entry): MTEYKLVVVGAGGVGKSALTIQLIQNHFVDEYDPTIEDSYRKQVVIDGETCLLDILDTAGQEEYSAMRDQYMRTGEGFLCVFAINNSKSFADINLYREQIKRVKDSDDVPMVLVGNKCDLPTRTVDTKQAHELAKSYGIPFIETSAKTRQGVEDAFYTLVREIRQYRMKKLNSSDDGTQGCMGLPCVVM

Sequence of GDP-bound HRAS wild-type protein (P01112 whole entry): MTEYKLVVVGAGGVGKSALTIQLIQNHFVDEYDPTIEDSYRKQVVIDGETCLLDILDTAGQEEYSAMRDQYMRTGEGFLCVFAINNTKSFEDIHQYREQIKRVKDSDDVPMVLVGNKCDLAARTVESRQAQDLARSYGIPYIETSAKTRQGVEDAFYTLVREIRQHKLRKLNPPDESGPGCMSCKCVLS
Sequence of GDP-bound KRAS wild-type protein (P01116 whole entry): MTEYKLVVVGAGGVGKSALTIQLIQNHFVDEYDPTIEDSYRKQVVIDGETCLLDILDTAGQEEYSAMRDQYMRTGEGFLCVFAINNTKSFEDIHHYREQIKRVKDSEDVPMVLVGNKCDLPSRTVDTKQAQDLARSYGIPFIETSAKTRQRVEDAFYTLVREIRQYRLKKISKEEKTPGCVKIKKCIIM

| Compound | Kd [1] [nM] | HRAS/KRAS (KD ratio) [2] | IC50 [3] [nM] | NRAS/KRAS (KD ratio) [4] |
| --- | --- | --- | --- | --- |
| CC[C@H](C)[C@@H]1NC(=O)[C@H](CC2CCC2)N(C)C(=O)C[C@@H](C(=O)N(C)C)N(C)C(=O)[C@H](C2CCCC2)N(C)C(=O)C2(CCC2)N(C)C(=O)[C@@H]2CCCN2C(=O)[C@H](CCc2cc(F)c(C(F)(F)F)c(F)c2)NC(=O)CN(C)C(=O)[C@H](Cc2ccc(C)cc2)N2CC/C=C\C[C@@H](C2=O)N(C)C(=O)CN(C)C1=O [PP1802] | 0.082 | B (a compound having 3 or more and less than 10 is denoted as B) | 5.8 | A (a compound having 10 or more and less than 20 is denoted as A) |
| CCO[C@@H]1C[C@H]2C(=O)N(C)C3(CCCC3)C(=O)N(C)[C@@H](C3CCCC3)C(=O)N(C)[C@H](C(=O)N(C)C)CC(=O)N(C)[C@@H](CC)C(=O)N[C@@H]([C@@H](C)CC)C(=O)N(C)CC(=O)N(C)[C@H]3C/C=C\CCN(C3=O)[C@@H](Cc3ccc(C(F)(F)F)cc3)C(=O)N(C)CC(=O)N[C@@H](CCc3cc(F)c(C(F)(F)F)c(F)c3)C(=O)N2C1 [PP1804] | 0.056 | A (a compound having 10 or more and less than 20 is denoted as A) | 3.5 | A (a compound having 10 or more and less than 20 is denoted as A) |
| CC[C@H](C)[C@@H]1NC(=O)[C@H](CC)N(C)C(=O)C[C@@H](C(=O)N(C)C)N(C)C(=O)[C@H](C2CCCC2)N(C)C(=O)C2(CCCC2)N(C)C(=O)[C@@H]2CCCN2C(=O)[C@H](CCc2cc(F)c(C(F)(F)F)c(F)c2)NC(=O)CN(C)C(=O)[C@H](Cc2ccc(C(F)(F)F)cc2)N2CC/C=C\C[C@@H](C2=O)N(C)C(=O)CN(C)C1=O [PP1805] | 0.071 | A (a compound having 10 or more and less than 20 is denoted as A) | 7 | A (a compound having 10 or more and less than 20 is denoted as A) |
| CCO[C@@H]1C[C@H]2C(=O)N(C)C3(CCCC3)C(=O)N(C)[C@@H](C3CCCC3)C(=O)N(C)[C@H](C(=O)N(C)C)CC(=O)N(C)[C@@H](CC)C(=O)N[C@@H]([C@@H](C)CC)C(=O)N(C)CC(=O)N(C)[C@H]3C/C=C\CCN(C3=O)[C@@H](Cc3ccc(C)cc3)C(=O)N(C)CC(=O)N[C@@H](CCc3cc(F)c(C(F)(F)F)c(F)c3)C(=O)N2C1 [PP1806] | 0.06 | B (a compound having 3 or more and less than 10 is denoted as B) | 4 | A (a compound having 10 or more and less than 20 is denoted as A) |
| CC[C@H](C)[C@@H]1NC(=O)[C@H](CC)N(C)C(=O)C[C@@H](C(=O)N(C)C)N(C)C(=O)[C@H](C2CCCC2)N(C)C(=O)C2(CCCC2)N(C)C(=O)[C@@H]2CCCN2C(=O)[C@H](CCc2cc(F)c(C(F)(F)F)c(F)c2)NC(=O)CN(C)C(=O)[C@H](Cc2ccc(C)cc2)N2CC/C=C\C[C@@H](C2=O)N(C)C(=O)CN(C)C1=O [PP1807] | 0.062 | B (a compound having 3 or more and less than 10 is denoted as B) | 5 | A (a compound having 10 or more and less than 20 is denoted as A) |
| CCO[C@@H]1C[C@H]2C(=O)N(C)C3(CCCC3)C(=O)N(C)[C@@H](C3CCCC3)C(=O)N(C)[C@H](C(=O)N(C)C)CC(=O)N(C)[C@@H](C3CC3)C(=O)N[C@@H]([C@@H](C)CC)C(=O)N(C)CC(=O)N(C)[C@H]3C/C=C\CCN(C3=O)[C@@H](Cc3ccc(C)cc3)C(=O)N(C)CC(=O)N[C@@H](CCc3cc(F)c(C(F)(F)F)c(F)c3)C(=O)N2C1 [PP1808] | 0.084 | B (a compound having 3 or more and less than 10 is denoted as B) | 8.8 | A (a compound having 10 or more and less than 20 is denoted as A) |
| CC[C@H](C)[C@@H]1NC(=O)[C@H](C2CC2)N(C)C(=O)C[C@@H](C(=O)N(C)C)N(C)C(=O)[C@H](C2CCCC2)N(C)C(=O)C2(CCCC2)N(C)C(=O)[C@@H]2CCCN2C(=O)[C@H](CCc2cc(F)c(C(F)(F)F)c(F)c2)NC(=O)CN(C)C(=O)[C@H](Cc2ccc(C)cc2)N2CC/C=C\C[C@@H](C2=O)N(C)C(=O)CN(C)C1=O [PP1809] | 0.12 | B (a compound having 3 or more and less than 10 is denoted as B) | 22.4 | A (a compound having 10 or more and less than 20 is denoted as A) |
| CCO[C@@H]1C[C@H]2C(=O)N(C)C3(CCCC3)C(=O)N(C)[C@@H](C3CCCC3)C(=O)N(C)[C@H](C(=O)N(C)C)CC(=O)N(C)[C@@H](CC)C(=O)N[C@@H]([C@@H](C)CC)C(=O)N3CCC[C@H]3C(=O)N(C)[C@H]3C/C=C\CCN(C3=O)[C@@H](Cc3ccc(C)cc3)C(=O)N(C)CC(=O)N[C@@H](CCc3cc(F)c(C(F)(F)F)c(F)c3)C(=O)N2C1 [PP1810] | 0.16 | B (a compound having 3 or more and less than 10 is denoted as B) | 4.6 | A (a compound having 10 or more and less than 20 is denoted as A) |
| CC[C@H](C)[C@@H]1NC(=O)[C@H](CC)N(C)C(=O)C[C@@H](C(=O)N(C)C)N(C)C(=O)[C@H](C2CCCC2)N(C)C(=O)C2(CCCC2)N(C)C(=O)[C@@H]2CCCN2C(=O)[C@H](CCc2cc(F)c(C(F)(F)F)c(F)c2)NC(=O)CN(C)C(=O)[C@H](Cc2ccc(C)cc2)N2CC/C=C\C[C@@H](C2=O)N(C)C(=O)[C@@H]2CCCN2C1=O [PP1811] | 0.23 | B (a compound having 3 or more and less than 10 is denoted as B) | 14.3 | A (a compound having 10 or more and less than 20 is denoted as A) |
| CC[C@H](C)[C@@H]1NC(=O)[C@H](CC)N(C)C(=O)C[C@@H](C(=O)N(C)C)N(C)C(=O)[C@H](C2CCCC2)N(C)C(=O)C2(CCCC2)N(C)C(=O)[C@@H]2C[C@@H](C)CN2C(=O)[C@H](CCc2cc(F)c(C(F)(F)F)c(F)c2)NC(=O)CN(C)C(=O)[C@H](Cc2ccc(C)cc2)N2CC/C=C\C[C@@H](C2=O)N(C)C(=O)CN(C)C1=O [PP1812] | 0.059 | A (a compound having 10 or more and less than 20 is denoted as A) | 7.8 | A (a compound having 10 or more and less than 20 is denoted as A) |
| CC[C@H](C)[C@@H]1NC(=O)[C@H](C2CC2)N(C)C(=O)C[C@@H](C(=O)N(C)C)N(C)C(=O)[C@H](C2CCCC2)N(C)C(=O)C2(CCCC2)N(C)C(=O)[C@@H]2C[C@@H](C)CN2C(=O)[C@H](CCc2cc(F)c(C(F)(F)F)c(F)c2)NC(=O)CN(C)C(=O)[C@H](Cc2ccc(C)cc2)N2CC/C=C\C[C@@H](C2=O)N(C)C(=O)CN(C)C1=O [PP1813] | 0.12 | B (a compound having 3 or more and less than 10 is denoted as B) | 22.6 | A (a compound having 10 or more and less than 20 is denoted as A) |
| CC[C@H](C)[C@@H]1NC(=O)[C@H](CC)N(C)C(=O)C[C@@H](C(=O)N(C)C)N(C)C(=O)[C@H](C2CCCC2)N(C)C(=O)C2(CCCC2)N(C)C(=O)[C@@H]2C[C@@H](C)CN2C(=O)[C@H](CCc2cc(F)c(C(F)(F)F)c(F)c2)NC(=O)CN(C)C(=O)[C@H](Cc2ccc(C)cc2)N2CC/C=C\C[C@@H](C2=O)N(C)C(=O)[C@@H]2CCCN2C1=O [PP1814] | 0.27 | A (a compound having 10 or more and less than 20 is denoted as A) | 26.2 | A (a compound having 10 or more and less than 20 is denoted as A) |
| CCCN1C(=O)C[C@@H](C(=O)N2CCOCC2)N(C)C(=O)[C@H](C2CCCC2)N(C)C(=O)C2(CCC2)NC(=O)[C@@H]2CCCN2C(=O)[C@H](CCc2ccc(C(F)(F)F)c(Cl)c2)NC(=O)CN(C)C(=O)[C@H](Cc2ccc(C(F)(F)F)cc2)N(CCC)C(=O)CN(C)C(=O)CN(C)C(=O)[C@H](C(C)C)NC(=O)[C@@H]1CC(C)C [PP1815] ([X4]V[Sar][Sar][NPrPhe(4-CF3)][Sar][hPhe(3-Cl-4-CF3)]P[Ac4c][NMeGly(cPent)][NMeD]-Morpholide; lactam N-11) | 0.34 | B (a compound having 3 or more and less than 10 is denoted as B) | 83 | B (a compound having 3 or more and less than 10 is denoted as B) |
| CCCN1C(=O)CN(C)C(=O)CN(C)C(=O)[C@H]([C@@H](C)CC)NC(=O)[C@H](CC(C)C)N(C)C(=O)C[C@@H](C(=O)N2CCOCC2)N(C)C(=O)[C@H](C2CCCC2)N(C)C(=O)C2(CCC2)NC(=O)[C@@H]2CCCN2C(=O)[C@H](CCc2ccc(C(F)(F)F)c(Cl)c2)NC(=O)CN(C)C(=O)[C@@H]1COC1CCC1 [PP1816] ([NMeL]I[Sar][Sar][X2][Sar][hPhe(3-Cl-4-CF3)]P[Ac4c][NMeGly(cPent)][NMeD]-Morpholide; lactam N-11) | 1.2 | C (A compound having a KD ratio of 0.1 or more and less than 3 is denoted as C) | 63.8 | B (a compound having 3 or more and less than 10 is denoted as B) |
| CCCN1C(=O)CN(C)C(=O)CN(C)C(=O)[C@H]([C@@H](C)CC)NC(=O)[C@H](CC(C)C)N(C)C(=O)C[C@@H](C(=O)N2CCOCC2)N(C)C(=O)[C@H](C2CCCC2)N(C)C(=O)C2(CCC2)NC(=O)[C@@H]2CCCN2C(=O)[C@H](CCc2ccc(C(F)(F)F)c(Cl)c2)NC(=O)CN(C)C(=O)[C@@H]1COCCC(C)C [PP1817] ([NMeL]I[Sar][Sar][X6][Sar][hPhe(3-Cl-4-CF3)]P[Ac4c][NMeGly(cPent)][NMeD]-Morpholide; lactam N-11) | 0.47 | C (A compound having a KD ratio of 0.1 or more and less than 3 is denoted as C) | 20.4 | C (A compound having a KD ratio of 0.1 or more and less than 3 is denoted as C) |
